Assay results as given in PubChem BioAssay (NCI).
Where “and” joins values, the source holds several entries; their conditions need not be identical. Equal values may be shown once.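 Values below derive from 48-hour exposures of cells grown in 96-well plates, with endpoints linearly interpolated between the two concentrations bracketing the appropriate inhibition level. GI50 = concentration required for 50% inhibition of growth. The concentration for full growth arrest is given as TGI.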

Key:
Assay in all cases: NCI-60 cell line screen, 48 h
[1] = test system: SK-MEL-5 melanoma
[2] = test system: SNB-75 CNS
[3] = test system: UACC-62 melanoma
[4] = test system: SK-OV-3 ovarian
[5] = test system: A498 renal
[6] = test system: SF-268 CNS
[7] = test system: HCT-116 colon
[8] = test system: MALME-3M melanoma
[9] = test system: HCT-15 colon
[10] = test system: CAKI-1 renal

Structure (SMILES) | GI50 [1] [µM] | TGI [1] | GI50 [2] | TGI [2] | GI50 [3] [µM] | TGI [3] | GI50 [4] | TGI [4] | GI50 [5] [µM] | TGI [5] | GI50 [6] [µM] | TGI [6] | GI50 [7] | TGI [7] | GI50 [8] [µM] | TGI [8] [µM] | GI50 [9] | TGI [9] | GI50 [10] | TGI [10]
C=CC12CCN(CC1)C(C(O)c1ccnc3ccc(OC)cc13)C2 (stereo not given) | 39.2 | > 100 µM | 95.3 µM | > 100 µM | > 100 | > 100 µM | > 100 µM | > 100 µM | 60.5 | > 100 µM | > 100 | > 100 µM | > 100 µM | > 100 µM | 86.6 | > 100 | 96.2 µM | > 100 µM | > 100 µM | > 100 µM
COc1ccc2c(=O)oc3c(OC)cc(CCN(C)C)c4c(=O)oc1c2c34 | – | 24.7 µM and 14.7 µM | 16.4 µM and 8.17 µM | 31.5 µM and 17.2 µM | – | 31.7 µM and 16.6 µM | 19.5 µM and 8.47 µM | 33.7 µM and 15.9 µM | – | 34.8 µM and 17.6 µM | – | 28.4 µM and 16.6 µM | 14.3 µM and 5.27 µM | 27.9 µM and 11.9 µM | – | 28.5 | 16.6 µM and 5.11 µM | 36.1 µM and 12.3 µM | 17.3 µM and 8.46 µM | 31.6 µM and 15.4 µM
CCOC(=O)Nc1c(C)nc2ccccn12 | > 100 | > 100 µM | > 100 µM | > 100 µM | > 100 | > 100 µM | > 100 µM | > 100 µM | > 100 | > 100 µM | > 100 | > 100 µM | > 100 µM | > 100 µM | > 100 | > 100 | > 100 µM | > 100 µM | > 100 µM | > 100 µM
O=C1C/C(Br)=C\c2ccccc2-c2ccccc21 | – | 16 µM | – | 7.65 µM | – | 5.09 µM | – | 10.1 µM | – | 22.5 µM | – | 8.39 µM | – | 3.71 µM | – | 4.94 | – | 3.36 µM | – | 5.86 µM
O=Cc1cc2c(cc1-c1cc3c(cc1C=O)OCO3)OCO2 | – | > 100 µM | – | > 100 µM | – | > 100 µM | – | > 100 µM | – | > 100 µM | – | > 100 µM | – | > 100 µM | – | > 100 | – | > 100 µM | – | > 100 µM
O=c1[nH]c(=O)n(C2CC(O)C(CO)O2)cc1OS(=O)(=O)C(F)(F)F (stereo not given) | – | > 100 µM | – | > 100 µM | – | > 100 µM | – | > 100 µM | – | > 100 µM | – | > 100 µM | – | > 100 µM | – | > 100 | – | > 100 µM | – | > 100 µM
NCCCn1c2c(c3ccc([N+](=O)[O-])cc3c1=O)C(=O)c1cc(I)ccc1-2 | 0.172 | 1.45 µM | 0.95 µM | 3.9 µM | < 0.01 | 1.21 µM | 0.0825 µM | 6.5 µM | 3.02 | 7.72 µM | 0.0841 | 3.43 µM | < 0.01 µM | 0.201 µM | 0.228 | 1.86 | 0.17 µM | 1.79 µM | 0.0758 µM | 1.98 µM
COC(=O)C1=CN(CC2=CC(=O)C(C)=CC2=O)C=C(C(=O)OC)C1c1ccccc1OC | 14.2 | 30.4 µM | > 100 µM | > 100 µM | 13.3 | 27.5 µM | > 100 µM | > 100 µM | 31.4 | > 87.9 µM | 18.7 | 58.6 µM | 22.8 µM | 66 µM | 14 | 33.3 | 18.9 µM | 39.2 µM | 16.7 µM | 37.9 µM
O=C(Nc1nc(-c2c[nH]c3ccccc23)cs1)c1n[nH]c(=O)c2ccccc12 | 1.44 | > 100 µM | 16.2 µM | > 67.8 µM | 1.45 | > 100 µM | 12.6 µM | > 100 µM | 22 | > 100 µM | 1.25 | > 46.2 µM | 0.368 µM | > 44.5 µM | 18.7 | 80 | 0.29 µM | > 36.7 µM | 2.44 µM | > 62.3 µM
c1ccc2c(c1)CCc1c(-c3ccncc3)n[nH]c1-2 | – | 32.1 µM | – | 77.7 µM | – | 34.7 µM | – | 93.6 µM | – | 79.8 µM | – | > 100 µM | – | 46.2 µM | – | > 100 | – | 87.4 µM | – | 73.4 µM
CNCCCNc1ccnc2cc(Cl)ccc12 | 16.4 | 31.6 µM | 16.4 µM | 82 µM | 20.1 | 45.7 µM | 21.9 µM | 60.8 µM | 12.4 | 40.3 µM | 22.6 | 98.3 µM | 11.2 µM | 41.4 µM | 19.7 | 40.5 | 23.3 µM | 94.4 µM | 17.3 µM | 48.6 µM
